Measured values published in ChEMBL document CHEMBL6120948, “Design, Synthesis, and Biological Evaluation of Lysine-Stapled Peptide Inhibitors of p53-MDM2/MDMX Interactions with Potent Antitumor Activity In Vivo” (J Med Chem, 2024).

Tests used:
[1] = Antiproliferative activity against human U-87 MG cells expressing wild-type p53 incubated for 72 hrs by MTT assay; type: functional, cell-based, U-87MG ATCC
MCF7 = experiment: Antiproliferative activity against human MCF7 cells expressing wild-type p53 incubated for 72 hrs by MTT assay; type: functional, cell-based; settings: MCF7, 72 h
[2] = Induction of alpha-helical conformation in phosphate buffer at pH 7 at 100 uM by CD analysis; type: physicochemical; settings: pH 7, 100 µM

Compound | IC50 [1] | IC50 (MCF7) | Activity [2]
CC(=O)N[C@@H](CC(C)C)C(=O)N[C@H](C(=O)N[C@@H](Cc1ccccc1)C(=O)N[C@H]1CCCCNCc2ccc(cc2)CNCCCC[C@@H](C(=O)N[C@@H](CO)C(=O)N[C@@H](C)C(=O)N[C@@H](C)C(N)=O)NC(=O)[C@H](CC(C)C)NC(=O)[C@H](CCC(N)=O)NC(=O)[C@H](C)NC(=O)[C@H](Cc2c[nH]c3ccccc23)NC(=O)[C@H](Cc2ccc(O)cc2)NC(=O)[C@H](Cc2c[nH]cn2)NC1=O)[C@@H](C)O | > 160 µM | > 160 µM | 11%
CC(=O)N[C@@H](CC(C)C)C(=O)N[C@H](C(=O)N[C@@H](Cc1ccccc1)C(=O)N[C@@H](CCC(=O)O)C(=O)N[C@H]1CCCCNCc2cccc(c2)CNCCCC[C@@H](C(=O)N[C@@H](CC(C)C)C(=O)N[C@H](C(=O)N[C@@H](CO)C(=O)N[C@@H](C)C(=O)N[C@@H](C)C(N)=O)[C@@H](C)O)NC(=O)[C@H](C)NC(=O)[C@H](Cc2c[nH]c3ccccc23)NC(=O)[C@H](Cc2ccc(O)cc2)NC1=O)[C@@H](C)O | 138 µM | > 160 µM | 11%
Ac-LTFEHYWAQLTS-NH2 |  |  | 11%
CC(=O)N[C@@H](CC(C)C)C(=O)N[C@H](C(=O)N[C@@H](Cc1ccccc1)C(=O)N[C@H]1CCCCNCc2ccccc2CNCCCC[C@@H](C(=O)N[C@@H](CO)C(=O)N[C@@H](C)C(=O)N[C@@H](C)C(N)=O)NC(=O)[C@H](CC(C)C)NC(=O)[C@H](CCC(N)=O)NC(=O)[C@H](C)NC(=O)[C@H](Cc2c[nH]c3ccccc23)NC(=O)[C@H](Cc2ccc(O)cc2)NC(=O)[C@H](Cc2c[nH]cn2)NC1=O)[C@@H](C)O | > 160 µM | > 160 µM | 11%
CC(=O)N[C@@H](CC(C)C)C(=O)N[C@H](C(=O)N[C@@H](Cc1ccccc1)C(=O)N[C@@H](CCC(=O)O)C(=O)N[C@H]1CCCCNCc2ccc(cc2)CNCCCC[C@@H](C(=O)N[C@@H](CC(C)C)C(=O)N[C@H](C(=O)N[C@@H](CO)C(=O)N[C@@H](C)C(=O)N[C@@H](C)C(N)=O)[C@@H](C)O)NC(=O)[C@H](C)NC(=O)[C@H](Cc2c[nH]c3ccccc23)NC(=O)[C@H](Cc2ccc(O)cc2)NC1=O)[C@@H](C)O | > 160 µM | 6.91 µM | 11%
CC(=O)N[C@@H](CC(C)C)C(=O)N[C@H](C(=O)N[C@@H](Cc1ccccc1)C(=O)N[C@H]1CCCCNCc2ccc(cc2)CNCCCC[C@@H](C(=O)N[C@@H](CCC(N)=O)C(=O)N[C@@H](CC(C)C)C(=O)N[C@H](C(=O)N[C@@H](CO)C(=O)N[C@@H](C)C(=O)N[C@@H](C)C(N)=O)[C@@H](C)O)NC(=O)[C@H](Cc2c[nH]c3ccccc23)NC(=O)[C@H](Cc2ccc(O)cc2)NC(=O)[C@H](Cc2c[nH]cn2)NC1=O)[C@@H](C)O | > 160 µM | > 160 µM | 11%
CC(=O)N[C@@H](CC(C)C)C(=O)N[C@H](C(=O)N[C@@H](Cc1ccccc1)C(=O)N[C@H]1CCCCNCC#CCNCCCC[C@@H](C(=O)N[C@@H](CCC(N)=O)C(=O)N[C@@H](CC(C)C)C(=O)N[C@H](C(=O)N[C@@H](CO)C(=O)N[C@@H](C)C(=O)N[C@@H](C)C(N)=O)[C@@H](C)O)NC(=O)[C@H](Cc2c[nH]c3ccccc23)NC(=O)[C@H](Cc2ccc(O)cc2)NC(=O)[C@H](Cc2c[nH]cn2)NC1=O)[C@@H](C)O | > 160 µM | > 160 µM | 11%
CC(=O)N[C@@H](CC(C)C)C(=O)N[C@H](C(=O)N[C@@H](Cc1ccccc1)C(=O)N[C@H]1CCCCNCc2cccc(c2)CNCCCC[C@@H](C(=O)N[C@@H](CO)C(=O)N[C@@H](C)C(=O)N[C@@H](C)C(N)=O)NC(=O)[C@H](CC(C)C)NC(=O)[C@H](CCC(N)=O)NC(=O)[C@H](C)NC(=O)[C@H](Cc2c[nH]c3ccccc23)NC(=O)[C@H](Cc2ccc(O)cc2)NC(=O)[C@H](Cc2c[nH]cn2)NC1=O)[C@@H](C)O | 52.9 µM | > 160 µM | 11%
